Results: patent US12637414B2, “Arylamides and methods of use thereof” (Genzyme Corporation, priority 2019, dated 2026)

Molecular target: T1, human Cystic Fibrosis Transmembrane Conductance Regulator (CFTR) harboring the ΔF508 mutation (Homo sapiens, UniProt P13569, DEL508-508)
T1 construct: expressed in transfected cells; host or cells: H441 carcinoma line (G418 selection)
Experiment: H441 cell Emax and EC50: HRP-tagged ΔF508-CFTR cell surface luminescence assay
Assay type: cell-based
Conditions: H441 cells expressing ΔF508-CFTR-HRP, 27° C., two nights; for EC50: 15-point dose-response, top 24.5 μM; for Emax: NCI-H441, % of maximum VX809 signal
Description: Two cell lines were used, the H441 carcinoma line and the CFHBE41o-(41o-) human bronchial epithelial line. Both cell lines expressed human Cystic Fibrosis Transmembrane Conductance Regulator (CFTR) harboring the ΔF508 mutation and with an in-frame fusion in CFTR extracellular loop 4 of Horse Radish Peroxidase (HRP) under control of the CMV promoter. In the presence of the HRP tag, ΔF508-CFTR transported to the cell surface was detectable upon addition of an HRP substrate (Luminata Forte). Both cell types were cultivated at 37° C. with CO2.
For both cell types, the medium was changed every other day unless the culture was at low % confluence. Cells were used for the assays at ˜75% confluence.
To a polypropylene (PP) 384-well plate, 15 μls DMSO was added to all wells in columns 1-22 and 24 (low Control). 15 μls of 260 μM VX809 (Lumacaftor), Selleckchem S1565, was added to column 23 wells (high Control). 15 μls of 10 mM test compound or VX809 (control) were added to wells of row A. Serial dilutions of Row A compound were performed 2×15 μls in rows A through O (15-point).
A PP, 384-well plate containing the appropriate cell culture medium was prepared for each assay plate with 100 μls per well. For the doxycycline-induced 41o-cells, doxycycline for both the assay plate and the medium dilution plate was added at 0.0005 mg/ml to the medium.
Both cell lines were plated for the assay at 30 uls per 384-well at 3.4×10^e5 cells per ml (˜10K cells/well). H441 cells were plated on opaque, white, Corning plate 3704. 41o-cells were plated on collagen-coated opaque, white, Corning plate 356665. For 41o-cells, doxycycline was added to the medium.
Using FX (Beckman) protocol, 10 uls diluted compound or medium was added per well to the Assay Plate as: 2 μls DMSO Dilution plate well is diluted in 100 uls of the Medium Dilution Plate well, mixed, and 10 uls is transferred to the Assay Plate.
The final assay dilution series is 24.5, 12.3, 6.1, 3.1, 1.5, 0.8, 0.4, 0.2, 0.1, 0.05, 0.02, 0.01, 0.006, 0.003, 0.001 and 0 μM. The 41o-assay plates were incubated at 37° C. w/CO2, the H441 assay plates were incubated at 27° C. w/CO2, each overnight for two nights.
After being brought to room temperature, the assay plate liquid was removed. 30 μls of Luminata Forte (Millipore ELLUF0100) was added per well and incubated at room temperature for 10 min. The plates were then read on a Topcount, protocol LumiMatti (CPS, luminescence). The data was analyzed for % of maximum, maximum VX809 signal, and EC50 using Pearl and SPEED tools.

T1 sequence (P13569 with tags, fused parts or gaps DEL508-508): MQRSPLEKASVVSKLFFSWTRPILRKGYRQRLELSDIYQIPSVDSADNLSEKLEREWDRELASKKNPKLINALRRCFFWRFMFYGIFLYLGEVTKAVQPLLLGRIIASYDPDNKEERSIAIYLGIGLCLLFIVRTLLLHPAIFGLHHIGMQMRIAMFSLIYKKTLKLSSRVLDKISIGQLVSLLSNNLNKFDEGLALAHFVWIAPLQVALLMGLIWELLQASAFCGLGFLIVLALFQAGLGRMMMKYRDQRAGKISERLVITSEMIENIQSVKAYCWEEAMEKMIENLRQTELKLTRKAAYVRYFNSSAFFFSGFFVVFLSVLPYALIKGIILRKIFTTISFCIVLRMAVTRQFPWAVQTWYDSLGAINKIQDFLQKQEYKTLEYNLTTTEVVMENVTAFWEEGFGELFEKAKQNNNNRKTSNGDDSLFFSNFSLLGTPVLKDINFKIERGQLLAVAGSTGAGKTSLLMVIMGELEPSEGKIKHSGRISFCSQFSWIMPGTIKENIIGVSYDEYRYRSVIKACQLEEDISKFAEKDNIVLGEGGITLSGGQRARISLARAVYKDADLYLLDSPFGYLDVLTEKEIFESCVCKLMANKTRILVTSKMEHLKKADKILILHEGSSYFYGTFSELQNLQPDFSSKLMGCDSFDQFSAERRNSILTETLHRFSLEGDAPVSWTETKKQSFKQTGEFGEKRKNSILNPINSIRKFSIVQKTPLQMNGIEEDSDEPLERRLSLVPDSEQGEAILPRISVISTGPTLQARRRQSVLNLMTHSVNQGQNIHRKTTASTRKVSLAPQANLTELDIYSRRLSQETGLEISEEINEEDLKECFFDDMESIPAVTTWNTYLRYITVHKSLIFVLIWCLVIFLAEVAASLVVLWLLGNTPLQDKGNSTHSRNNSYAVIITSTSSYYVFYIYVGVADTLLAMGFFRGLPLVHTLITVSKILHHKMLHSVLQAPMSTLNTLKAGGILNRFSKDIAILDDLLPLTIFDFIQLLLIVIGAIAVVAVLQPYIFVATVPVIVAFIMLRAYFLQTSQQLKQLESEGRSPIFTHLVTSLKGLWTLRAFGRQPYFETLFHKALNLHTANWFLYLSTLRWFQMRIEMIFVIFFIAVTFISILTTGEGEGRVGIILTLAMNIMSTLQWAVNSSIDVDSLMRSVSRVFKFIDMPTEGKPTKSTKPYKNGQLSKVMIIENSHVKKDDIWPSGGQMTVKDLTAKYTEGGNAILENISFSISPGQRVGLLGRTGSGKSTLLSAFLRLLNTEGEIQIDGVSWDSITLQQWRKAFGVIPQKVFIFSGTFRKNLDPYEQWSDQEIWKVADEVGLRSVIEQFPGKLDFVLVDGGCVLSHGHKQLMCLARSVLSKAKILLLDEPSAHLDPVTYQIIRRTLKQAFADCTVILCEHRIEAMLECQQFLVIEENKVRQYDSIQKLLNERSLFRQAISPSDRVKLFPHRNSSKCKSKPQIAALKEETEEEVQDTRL

| Structure (SMILES) | EC50 [nM] | Emax [%] |
| --- | --- | --- |
| O=C(N[C@H](C(=O)O)C12CC3CC(CC(C3)C1)C2)c1ccc2ccccc2c1OCC#CC1CC1 [compound 101, (2S)-2-(1-adamantyl)-2-[[1-(3-cyclopropylprop-2-ynoxy)naphthalene-2-carbonyl]amino]acetic acid] | 2700 | 145 |
| O=C(N[C@H](C(=O)O)C12CC3CC(CC(C3)C1)C2)c1ccc2c(F)cccc2c1OCc1ccc(C(F)(F)F)cc1 [compound 1] | 206 | 176 |
| O=C(O)[C@@H](N1CN(Cc2ccc(C(F)(F)F)cc2)c2c(ccc3ccccc23)C1=O)C12CC3CC(CC(C3)C1)C2 [compound 125, (2S)-2-(1-adamantyl)-2-[4-oxo-1-[[4-(trifluoromethyl)phenyl]methyl]-2H-benzo[h]quinazolin-3-yl]acetic acid] | 109 | 66 |
| COc1ccc2c(OCc3ccc(SC(F)(F)F)cc3)c(C(=O)N[C@H](C(=O)O)C34CC5CC(CC(C5)C3)C4)ccc2c1 [compound 83] | 947 | 16.4 |
| O=C(N[C@H](C(=O)O)C12CC3CC(CC(O)(C3)C1)C2)c1ccc2ccccc2c1OCC1CCC(F)(F)CC1 [compound 53] | 7220 | 74.1 |
| O=C(N[C@H](C(=O)O)C12CC3CC(CC(C3)C1)C2)c1ccc2sccc2c1OCC1CCC(F)(F)CC1 [compound 106, (2S)-2-(1-adamantyl)-2-[[4-[(4,4-difluorocyclohexyl)methoxy]benzothiophene-5-carbonyl]amino]acetic acid] | 3620 | 156 |
| O=C(O)[C@@H](N1CN(Cc2ccc(C(F)(F)F)cc2)c2ccccc2C1=O)C12CC3CC(CC(C3)C1)C2 [compound 135, (2S)-2-(1-adamantyl)-2-[4-oxo-1-[[4-(trifluoromethyl)phenyl]methyl]-2H-quinazolin-3-yl]acetic acid] | – | -5.4 |
| O=C(N[C@H](C(=O)O)C12CC3CC(CC(Br)(C3)C1)C2)c1ccc2ccccc2c1OCc1ccc(C(F)(F)F)cc1 [compound 54] | 153 | 147 |
| O=C(N[C@H](C(=O)O)C12CC3CC(CC(O)(C3)C1)C2)c1ccc2cc(F)ccc2c1OCC1CCC(F)(F)CC1 [compound 21] | 4060 | 32.5 |
| O=C(N[C@H](C(=O)O)C12CC3CC(CC(C3)C1)C2)c1ccc2ccccc2c1OCc1ccc(OC(F)(F)F)cc1 [compound 8] | 1400 | 176 |
| O=C(N[C@H](C(=O)O)C12CC3CC(CC(C3)C1)C2)c1ccc2ccccc2c1OCc1ccc([N+](=O)[O-])cc1 [compound 73] | 1320 | 118 |
| O=C(N[C@H](C(=O)O)C12CC3CC(Cl)(CC(Cl)(C3)C1)C2)c1ccc2ccccc2c1OCc1ccc(SC(F)(F)F)cc1 [compound 81] | 113 | 158 |
| CS(=O)(=O)c1ccc(COc2c(C(=O)N[C@H](C(=O)O)C34CC5CC(CC(C5)C3)C4)ccc3ccccc23)cc1 [compound 58] | 15800 | 30.1 |
| O=C(N[C@H](C(=O)O)C12CC3CC(CC(O)(C3)C1)C2)c1ccc2cc(F)ccc2c1OCc1ccc(OC(F)(F)F)cc1 [compound 46] | – | 3.8 |
| O=C(N[C@H](C(=O)O)C12CC3CC(CC(C3)C1)C2)c1sc2ccccc2c1OCc1nc2ccccc2s1 [compound 95] | 939 | 156 |
| CCOC12CC3CC(C1)CC([C@H](NC(=O)c1ccc4ccccc4c1OCc1ccc(C(F)(F)F)cc1)C(=O)O)(C3)C2 [compound 27] | 153 | 215 |
| O=C(N[C@H](C(=O)O)C12CC3CC(CC(C3)C1)C2)c1ccc2cccnc2c1OCc1ccc(C(F)(F)F)cc1 [compound 41] | 468 | 173 |
| CC12CC3(C)CC(C)(C1)CC([C@H](NC(=O)c1ccc4cccnc4c1OCc1ccc(C(F)(F)F)cc1)C(=O)O)(C2)C3 [compound 62] | 245 | 217 |

| Structure (SMILES) | EC50 [nM] | Emax [%] |
| --- | --- | --- |
| O=C(O)[C@@H](N1CN(Cc2ccc(OC(F)(F)F)cc2)c2c(ccc3ccccc23)C1=O)C12CC3CC(CC(O)(C3)C1)C2 [compound 119] | 614 | 71 |
| O=C(N[C@H](C(=O)O)C12CC3CC(CC(OCC(F)(F)F)(C3)C1)C2)c1ccc2ccccc2c1OCc1ccc(C(F)(F)F)cc1 [compound 6] | 126 | 233 |
| O=C(N[C@H](C(=O)O)C12CC3CC(CC(C3)C1)C2)c1sc2ccccc2c1OCc1ccc(C(F)(F)F)cc1 [compound 15] | 328 | 158 |
| O=C(N[C@H](C(=O)O)C12CC3CC(CC(C3)C1)C2)c1ccc2cc(F)ccc2c1OCC1CCCCC1 [compound 45] | 939 | 142 |
| O=C(N[C@H](C(=O)O)C12CC3CC(CC(C3)C1)C2)c1ccc2cc(F)ccc2c1OCc1ccc(S(F)(F)(F)(F)F)cc1 [compound 56] | 236 | 89.7 |
| O=C(N[C@H](C(=O)O)C12CC3CC(CC(C3)C1)C2)c1ccc2cc(F)ccc2c1OCC1CCC(F)(F)CC1 [compound 16] | 1750 | 90 |
| O=C(NC(C(=O)O)C12CC3CC(CC(OCC(Cl)Cl)(C3)C1)C2)c1ccc2cc(F)ccc2c1OCc1ccc(C(F)(F)F)cc1 (stereo not shown) [compound 91] | 441 | 110 |
| CC12CC3(C)CC(C)(C1)CC(C(NC(=O)c1ccc4ccccc4c1OCC1CCC(F)(F)CC1)C(=O)O)(C2)C3 (stereo not shown) [compound 90] | 1010 | 165 |
| O=C(N[C@H](C(=O)O)C12CC3CC(CC(C3)C1)C2)c1ccc2cc(O)ccc2c1OCc1ccc(C(F)(F)F)cc1 [compound 37] | 155 | 132 |
| O=C(N[C@H](C(=O)O)C12CC3CC(CC(C3)C1)C2)c1ccc2cc(F)ccc2c1OCc1ccc(SC(F)(F)F)cc1 [compound 57] | 296 | 92.5 |
| O=C(N[C@H](C(=O)O)C12CC3(Cl)CC(Cl)(CC(Cl)(C3)C1)C2)c1ccc2ccccc2c1NCc1ccc(SC(F)(F)F)cc1 [compound 127, (2S)-2-(3,5,7-trichloro-1-adamantyl)-2-[[1-[[4-(trifluoromethylsulfanyl)phenyl]methylamino]naphthalene-2-carbonyl]amino]acetic acid] | 625 | 75.5 |
| C[C@H]1N(Cc2ccc(C(F)(F)F)cc2)c2c(ccc3ccccc23)C(=O)N1[C@H](C(=O)O)C12CC3CC(CC(C3)C1)C2 [compound 129, (2S)-2-(1-adamantyl)-2-[(2S)-2-methyl-4-oxo-1-[[4-(trifluoromethyl)phenyl]methyl]-2H-benzo[h]quinazolin-3-yl]acetic acid] | 90 | 34.9 |
| O=C(N[C@H](C(=O)O)C12CC3CC(CC(O)(C3)C1)C2)c1ccc2ccccc2c1NCc1ccc(SC(F)(F)F)cc1 [compound 131, (2S)-2-(3-hydroxy-1-adamantyl)-2-[[1-[[4-(trifluoromethylsulfanyl)phenyl]methylamino]naphthalene-2-carbonyl]amino]acetic acid] | 1400 | 21.7 |
| O=C(N[C@H](C(=O)O)C12CC3CC(CC(C3)C1)C2)c1ccc2ccccc2c1OCc1ccc(S(=O)(=O)C(F)(F)F)cc1 [compound 61] | 446 | 100 |
| O=C(N[C@H](C(=O)O)C12CC3CC(CC(O)(C3)C1)C2)c1ccc2ccccc2c1OCc1ccc(OC(F)(F)F)cc1 [compound 35] | 1130 | 141 |
| O=C(N[C@H](C(=O)O)C12CC3CC(CC(O)(C3)C1)C2)c1ccc2ccccc2c1OCC1CCCCC1 [compound 30] | 1450 | 96.8 |
| O=C(N[C@H](C(=O)O)C12CC3CC(CC(Br)(C3)C1)C2)c1ccc2cccnc2c1OCc1ccc(C(F)(F)F)cc1 [compound 67] | 879 | 134 |
| O=C(N[C@H](C(=O)O)C12CC3CC(CC(C3)C1)C2)c1ccc2sccc2c1OCc1nc(C(F)(F)F)cs1 [compound 115, (2S)-2-(1-adamantyl)-2-[[4-[[4-(trifluoromethyl)thiazol-2-yl]methoxy]benzothiophene-5-carbonyl]amino]acetic acid] | 2840 | 106 |
